Measurements reported in the supplement of paper PMC10331698.
± gives the standard deviation of the averaged measurements.

Legend:
Experiment in all cases: level (log10 ratio to DMSO vehicle control); higher = higher biomarker level / cell amount than vehicle control
[1] = compound: COC(=O)C(F)(F)C(F)(F)OC(F)(C(F)(F)F)C(F)(F)OC(F)=C(F)F [Methyl perfluoro(3-(1-ethenyloxypropan-2-yloxy)propanoate)]; details: in DMSO
Experimental: (§1)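 BioMAP Diversity Plus panel of 12 human primary cell co-culture systems (3C, 4H, LPS, SAg, BT, BF4T, BE3C, CASM3C, HDF3CGF, KF3CT, MyoF, Mphg). Compounds were added 1 h before stimulation and left for 24 h (MyoF 48 h; BT 72 h for soluble read-outs or 6 d for IgG). Biomarkers were read by ELISA, cytotoxicity by SRB, PBMC viability and proliferation by Alamar Blue. Each well value was divided by the mean of 8 DMSO control wells on the same plate and log10 transformed; duplicate blinded samples were tested at 4 concentrations.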

[2] = compound: OCC(F)(F)C(F)(F)C(F)(F)CO [Hexafluoroamylene glycol]; details: in DMSO
Experimental: as §1

[3] = compound: C=C(C)C(=O)OCCC(F)(F)C(F)(F)C(F)(F)C(F)(F)C(F)(F)C(F)(F)F [6:2 Fluorotelomer methacrylate]; details: in DMSO
Experimental: as §1

[4] = compound: C=CC(=O)OCC(F)(F)C(F)(F)C(F)(F)COC(=O)C=C [1H,1H,5H,5H-Perfluoro-1,5-pentanediol diacrylate]; details: 6700 nM; in DMSO
Experimental: as §1

[5] = compound: O=C(O)C=CC(F)(C(F)(F)F)C(F)(F)F [3-(Perfluoroisopropyl)-2-propenoic acid]; details: in DMSO
Experimental: as §1

[6] = compound: NC(=O)C(F)(F)C(F)(F)C(F)(F)C(F)(F)C(N)=O [Octafluoroadipamide]; details: in DMSO
Experimental: as §1

[7] = compound: FC(F)(F)C(F)(F)C(F)(F)C(F)(F)C(F)(F)C(F)(F)CC1CO1 [3-(Perfluorohexyl)-1,2-epoxypropane]; details: in DMSO
Experimental: as §1

[8] = compound: FC(F)(F)C(F)(F)C(F)(F)C(F)(F)C(F)(F)C(F)(F)C(F)(F)I [1-Iodopentadecafluoroheptane]; details: in DMSO
Experimental: as §1

BF4T:CD90
level (log10) ([1]; 6700 nM): -0.004 ± 0.017 | level (log10) ([1]; 20000 nM): -0.0045 ± 0.0078 | level (log10) ([2]; 6700 nM): -0.012 ± 0.0028 | level (log10) ([2]; 20000 nM): -0.017 | level (log10) ([2]; 60000 nM): -0.004 ± 0.011 | level (log10) ([3]; 6700 nM): -0.004 ± 0.0057 | level (log10) ([3]; 20000 nM): -0.007 ± 0.0057 | level (log10) ([3]; 60000 nM): -0.0065 ± 0.0021 | level (log10) [4]: -0.0195 ± 0.018 | level (log10) ([5]; 6700 nM): -0.0005 ± 0.013 | level (log10) ([5]; 20000 nM): -0.0105 ± 0.0035 | level (log10) ([5]; 60000 nM): 0.018 ± 0.0028 | level (log10) ([6]; 6700 nM): -0.0155 ± 0.0078 | level (log10) ([6]; 20000 nM): -0.0145 ± 0.0021 | level (log10) ([6]; 60000 nM): -0.0125 ± 0.021 | level (log10) ([7]; 6700 nM): -0.005 ± 0.0042 | level (log10) ([7]; 20000 nM): -0.0055 ± 0.0092 | level (log10) ([7]; 60000 nM): 0.0085 ± 0.028 | level (log10) ([8]; 6700 nM): 0.001 ± 0.016 | level (log10) ([8]; 20000 nM): -0.0025 ± 0.0021

BT:sIL-17F
level (log10) ([1]; 6700 nM): -0.027 ± 0.018 | level (log10) ([1]; 20000 nM): -0.064 ± 0.12 | level (log10) ([2]; 6700 nM): 0.0185 ± 0.069 | level (log10) ([2]; 20000 nM): 0.028 ± 0.041 | level (log10) ([2]; 60000 nM): 0.05 ± 0.033 | level (log10) ([3]; 6700 nM): -0.0095 ± 0.032 | level (log10) ([3]; 20000 nM): -0.023 ± 0.02 | level (log10) ([3]; 60000 nM): -0.046 ± 0.014 | level (log10) [4]: -1 ± 0.04 | level (log10) ([5]; 6700 nM): -0.088 ± 0.081 | level (log10) ([5]; 20000 nM): -0.014 ± 0.054 | level (log10) ([5]; 60000 nM): 0.0025 ± 0.043 | level (log10) ([6]; 6700 nM): 0.0465 ± 0.057 | level (log10) ([6]; 20000 nM): 0.073 ± 0.05 | level (log10) ([6]; 60000 nM): 0.06 ± 0.082 | level (log10) ([7]; 6700 nM): -0.051 ± 0.15 | level (log10) ([7]; 20000 nM): -0.012 ± 0.096 | level (log10) ([7]; 60000 nM): -0.0315 ± 0.079 | level (log10) ([8]; 6700 nM): -0.0435 ± 0.049 | level (log10) ([8]; 20000 nM): -0.0545 ± 0.16

LPS:sTNF-alpha
level (log10) ([1]; 6700 nM): 0.0115 ± 0.046 | level (log10) ([1]; 20000 nM): 0.0395 ± 0.019 | level (log10) ([2]; 6700 nM): 0.0025 ± 0.012 | level (log10) ([2]; 20000 nM): -0.009 ± 0.014 | level (log10) ([2]; 60000 nM): -0.001 ± 0.0099 | level (log10) ([3]; 6700 nM): 0.031 ± 0.028 | level (log10) ([3]; 20000 nM): 0.0415 ± 0.021 | level (log10) ([3]; 60000 nM): 0.0405 ± 0.022 | level (log10) [4]: -0.008 ± 0.0057 | level (log10) ([5]; 6700 nM): 0.003 ± 0.1 | level (log10) ([5]; 20000 nM): 0.0345 ± 0.057 | level (log10) ([5]; 60000 nM): 0.0395 ± 0.03 | level (log10) ([6]; 6700 nM): 0.047 ± 0.018 | level (log10) ([6]; 20000 nM): 0.0355 ± 0.018 | level (log10) ([6]; 60000 nM): 0.037 ± 0.0042 | level (log10) ([7]; 6700 nM): 0.063 ± 0.034 | level (log10) ([7]; 20000 nM): 0.09 ± 0.0028 | level (log10) ([7]; 60000 nM): 0.103 ± 0.011 | level (log10) ([8]; 6700 nM): 0.0115 ± 0.018 | level (log10) ([8]; 20000 nM): 0.0025 ± 0.0092

BF4T:CCL26/Eotaxin-3
level (log10) ([1]; 6700 nM): -0.007 | level (log10) ([1]; 20000 nM): -0.069 ± 0.014 | level (log10) ([2]; 6700 nM): 0.003 ± 0.051 | level (log10) ([2]; 20000 nM): 0.002 ± 0.0071 | level (log10) ([2]; 60000 nM): 0.0395 ± 0.042 | level (log10) ([3]; 6700 nM): 0.0285 ± 0.025 | level (log10) ([3]; 20000 nM): -0.001 ± 0.11 | level (log10) ([3]; 60000 nM): 0.041 ± 0.055 | level (log10) [4]: -0.04 ± 0.0028 | level (log10) ([5]; 6700 nM): -0.0085 ± 0.057 | level (log10) ([5]; 20000 nM): -0.005 ± 0.013 | level (log10) ([5]; 60000 nM): 0.0165 ± 0.029 | level (log10) ([6]; 6700 nM): -0.0045 ± 0.046 | level (log10) ([6]; 20000 nM): 0.0065 ± 0.052 | level (log10) ([6]; 60000 nM): 0.0075 ± 0.029 | level (log10) ([7]; 6700 nM): -0.0225 ± 0.076 | level (log10) ([7]; 20000 nM): -0.016 ± 0.065 | level (log10) ([7]; 60000 nM): 0.001 ± 0.0042 | level (log10) ([8]; 6700 nM): -0.04 ± 0.048 | level (log10) ([8]; 20000 nM): -0.0305 ± 0.042

BE3C:CXCL10/IP-10
level (log10) ([1]; 6700 nM): -0.02 ± 0.013 | level (log10) ([1]; 20000 nM): -0.054 ± 0.013 | level (log10) ([2]; 6700 nM): -0.009 ± 0.014 | level (log10) ([2]; 20000 nM): -0.0115 ± 0.011 | level (log10) ([2]; 60000 nM): -0.007 ± 0.02 | level (log10) ([3]; 6700 nM): 0.0275 ± 0.091 | level (log10) ([3]; 20000 nM): 0.021 ± 0.068 | level (log10) ([3]; 60000 nM): 0.034 ± 0.078 | level (log10) [4]: -0.0215 ± 0.0035 | level (log10) ([5]; 6700 nM): 0.0055 ± 0.0035 | level (log10) ([5]; 20000 nM): 0.004 ± 0.0099 | level (log10) ([5]; 60000 nM): 0.009 ± 0.0014 | level (log10) ([6]; 6700 nM): -0.0275 ± 0.047 | level (log10) ([6]; 20000 nM): -0.031 ± 0.03 | level (log10) ([6]; 60000 nM): -0.0185 ± 0.056 | level (log10) ([7]; 6700 nM): 0.001 ± 0.0057 | level (log10) ([7]; 20000 nM): 0.001 ± 0.017 | level (log10) ([7]; 60000 nM): 0.018 ± 0.0014 | level (log10) ([8]; 6700 nM): 0.01 ± 0.02 | level (log10) ([8]; 20000 nM): 0.0195 ± 0.035

SAg:CD69
level (log10) ([1]; 6700 nM): -0.0375 ± 0.0092 | level (log10) ([1]; 20000 nM): -0.0735 ± 0.033 | level (log10) ([2]; 6700 nM): -0.039 ± 0.042 | level (log10) ([2]; 20000 nM): -0.0215 ± 0.023 | level (log10) ([2]; 60000 nM): -0.024 ± 0.048 | level (log10) ([3]; 6700 nM): -0.001 ± 0.0014 | level (log10) ([3]; 20000 nM): -0.0035 ± 0.00071 | level (log10) ([3]; 60000 nM): -0.013 ± 0.024 | level (log10) [4]: -0.181 ± 0.073 | level (log10) ([5]; 6700 nM): -0.0105 ± 0.0035 | level (log10) ([5]; 20000 nM): 0.013 ± 0.0085 | level (log10) ([5]; 60000 nM): 0.002 ± 0.0071 | level (log10) ([6]; 6700 nM): -0.0095 ± 0.011 | level (log10) ([6]; 20000 nM): -0.013 ± 0.018 | level (log10) ([6]; 60000 nM): 0.002 ± 0.013 | level (log10) ([7]; 6700 nM): 0.013 ± 0.0042 | level (log10) ([7]; 20000 nM): 0.011 ± 0.011 | level (log10) ([7]; 60000 nM): 0.0035 ± 0.00071 | level (log10) ([8]; 6700 nM): -0.028 ± 0.0071 | level (log10) ([8]; 20000 nM): -0.039 ± 0.0014

BF4T:CD54/ICAM-1
level (log10) ([1]; 6700 nM): -0.0215 ± 0.011 | level (log10) ([1]; 20000 nM): -0.0265 ± 0.0064 | level (log10) ([2]; 6700 nM): -0.0145 ± 0.005 | level (log10) ([2]; 20000 nM): -0.0045 ± 0.015 | level (log10) ([2]; 60000 nM): 0.009 ± 0.014 | level (log10) ([3]; 6700 nM): -0.019 ± 0.0042 | level (log10) ([3]; 20000 nM): -0.0045 ± 0.026 | level (log10) ([3]; 60000 nM): -0.0195 ± 0.0035 | level (log10) [4]: -0.084 ± 0.011 | level (log10) ([5]; 6700 nM): 0.007 ± 0.0042 | level (log10) ([5]; 20000 nM): -0.0005 ± 0.025 | level (log10) ([5]; 60000 nM): 0.011 ± 0.0028 | level (log10) ([6]; 6700 nM): -0.015 ± 0.023 | level (log10) ([6]; 20000 nM): -0.017 ± 0.021 | level (log10) ([6]; 60000 nM): 0.009 ± 0.016 | level (log10) ([7]; 6700 nM): -0.002 ± 0.0057 | level (log10) ([7]; 20000 nM): 0.0025 ± 0.0021 | level (log10) ([7]; 60000 nM): 0.007 | level (log10) ([8]; 6700 nM): 0.004 ± 0.011 | level (log10) ([8]; 20000 nM): -0.0025 ± 0.013
